From ChEMBL document CHEMBL1201862, “PubChem BioAssay data set” (2004)
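Cells were grown in 96-well plates and exposed to each compound for 48 hours at five concentrations; endpoints were interpolated linearly between bracketing concentrations, or set to the highest concentration if not reached. GI50: concentration for 50% inhibition of growth.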 Activity calls are given as the source filed them. No stated cut-off is given here; in the data, active = GI50 up to about 1.1 µM and inactive = higher.

Legend:
Assay in all cases: DTP human tumour cell line panel, 48 h
DMS-273 = system: DMS-273
KM12 = system: KM12
HCC 2998 = system: HCC 2998
ACHN = system: ACHN
U-251 = system: U-251
OVCAR-3 = system: OVCAR-3
OVCAR-8 = system: OVCAR-8
NCI-H23 = system: NCI-H23
HT-29 = system: HT-29
SN12C = system: SN12C
K562 = system: K562
SF-539 = system: SF-539
HOP-92 = system: HOP-92
A549 = system: A549
IGROV-1 = system: IGROV-1
RPMI-8226 = system: RPMI-8226
SNB-75 = system: SNB-75

Row | Structure (SMILES) | GI50 (DMS-273) | GI50 (KM12) | GI50 (HCC 2998) | GI50 (ACHN) | GI50 (U-251) | GI50 (OVCAR-3) | GI50 (OVCAR-8) | GI50 (NCI-H23) | GI50 (HT-29) | GI50 (SN12C) | GI50 (K562) | GI50 (SF-539) | GI50 (HOP-92) | GI50 (A549) | GI50 (IGROV-1) | GI50 (RPMI-8226) | GI50 (SNB-75)
1 | CCCCCCCCCCCC(=O)c1c(O)cccc1O | 18.9 µM (inactive) | 16 µM (inactive) | 19.7 µM (inactive) | 19.5 µM (inactive) | 19.3 µM (inactive) | 17.5 µM (inactive) | 17.9 µM (inactive) | 17.6 µM (inactive) | 22.3 µM (inactive) | 19 µM (inactive) | 31.9 µM (inactive) | 18 µM (inactive) | 18.1 µM (inactive) | 18 µM (inactive) | 18.1 µM (inactive) | 26.7 µM (inactive) | 16.8 µM (inactive)
2 | Oc1cc2cc(-c3ccccc3)[nH]c2c2ccccc12 | 0.592 µM (active) | 27.4 µM (inactive) | 49.5 µM (inactive) | 25 µM (inactive) | 32.1 µM (inactive) | 16.3 µM (inactive) | 32.7 µM (inactive) | 15 µM (inactive) | 68.9 µM (inactive) | 28.8 µM (inactive) | 26.7 µM (inactive) | 28.6 µM (inactive) | 23.8 µM (inactive) | 30.1 µM (inactive) | 35.6 µM (inactive) | 16.6 µM (inactive) | 33 µM (inactive)
3 | COc1nc(OC)c2c(=O)oc(-c3ccccc3)cc2n1 | > 100 µM (inactive) | > 100 µM (inactive) | > 100 µM (inactive) | > 100 µM (inactive) | > 100 µM (inactive) | > 10 µM (inactive) | > 100 µM (inactive) | > 100 µM (inactive) | > 100 µM (inactive) | > 100 µM (inactive) | > 100 µM (inactive) | > 100 µM (inactive) | > 100 µM (inactive) | > 100 µM (inactive) | > 100 µM (inactive) | > 100 µM (inactive) | 53.5 µM (inactive)
4 | CCOC(=O)C1=C(C)NC(=O)NC1c1ccc(OC)cc1OC (stereo unspecified) | > 100 µM (inactive) | > 100 µM (inactive) | > 100 µM (inactive) | > 100 µM (inactive) | 52.6 µM (inactive) | > 100 µM (inactive) | > 100 µM (inactive) | > 100 µM (inactive) | > 100 µM (inactive) | > 100 µM (inactive) | > 100 µM (inactive) | – | > 100 µM (inactive) | > 100 µM (inactive) | > 100 µM (inactive) | 79.1 µM (inactive) | > 100 µM (inactive)
5 | COc1cc(NS(=O)(=O)c2ccc(C)cc2)c2nccnc2c1 | 23.6 µM (inactive) | 32.6 µM (inactive) | 47.6 µM (inactive) | 23.1 µM (inactive) | 22.1 µM (inactive) | 32.4 µM (inactive) | 26.7 µM (inactive) | 34.4 µM (inactive) | 36.8 µM (inactive) | 39.3 µM (inactive) | 20.4 µM (inactive) | 29.2 µM (inactive) | 35.2 µM (inactive) | 24 µM (inactive) | 36.9 µM (inactive) | 25.5 µM (inactive) | 24.3 µM (inactive)
6 | CCOC(=O)C1=C(Nc2cccc3ccccc23)OCC1=O | > 100 µM (inactive) | > 100 µM (inactive) | > 100 µM (inactive) | > 100 µM (inactive) | > 100 µM (inactive) | > 100 µM (inactive) | > 100 µM (inactive) | > 100 µM (inactive) | > 100 µM (inactive) | > 100 µM (inactive) | > 100 µM (inactive) | > 100 µM (inactive) | > 100 µM (inactive) | > 100 µM (inactive) | > 100 µM (inactive) | > 100 µM (inactive) | > 100 µM (inactive)
